Test results taken from ChEMBL document CHEMBL5678818, “Discovery of potent SOS1 inhibitors that block RAS activation via disruption of the RAS-SOS1 interaction” (Proc Natl Acad Sci U S A, 2019).

Legend:
[1] = target: Vascular endothelial growth factor receptor 3 (Homo sapiens) (UniProt P35916); test: Inhibition of FLT4 (unknown origin) assessed as residual activity at 1000 nM by KINOMEscan analysis relative to control
[2] = target: T1, Ephrin type-B receptor 4 (Homo sapiens) (UniProt P54760); test: Inhibition of EPHB4 (unknown origin) assessed as residual activity at 1000 nM by KINOMEscan analysis relative to control
T1 sequence (whole entry): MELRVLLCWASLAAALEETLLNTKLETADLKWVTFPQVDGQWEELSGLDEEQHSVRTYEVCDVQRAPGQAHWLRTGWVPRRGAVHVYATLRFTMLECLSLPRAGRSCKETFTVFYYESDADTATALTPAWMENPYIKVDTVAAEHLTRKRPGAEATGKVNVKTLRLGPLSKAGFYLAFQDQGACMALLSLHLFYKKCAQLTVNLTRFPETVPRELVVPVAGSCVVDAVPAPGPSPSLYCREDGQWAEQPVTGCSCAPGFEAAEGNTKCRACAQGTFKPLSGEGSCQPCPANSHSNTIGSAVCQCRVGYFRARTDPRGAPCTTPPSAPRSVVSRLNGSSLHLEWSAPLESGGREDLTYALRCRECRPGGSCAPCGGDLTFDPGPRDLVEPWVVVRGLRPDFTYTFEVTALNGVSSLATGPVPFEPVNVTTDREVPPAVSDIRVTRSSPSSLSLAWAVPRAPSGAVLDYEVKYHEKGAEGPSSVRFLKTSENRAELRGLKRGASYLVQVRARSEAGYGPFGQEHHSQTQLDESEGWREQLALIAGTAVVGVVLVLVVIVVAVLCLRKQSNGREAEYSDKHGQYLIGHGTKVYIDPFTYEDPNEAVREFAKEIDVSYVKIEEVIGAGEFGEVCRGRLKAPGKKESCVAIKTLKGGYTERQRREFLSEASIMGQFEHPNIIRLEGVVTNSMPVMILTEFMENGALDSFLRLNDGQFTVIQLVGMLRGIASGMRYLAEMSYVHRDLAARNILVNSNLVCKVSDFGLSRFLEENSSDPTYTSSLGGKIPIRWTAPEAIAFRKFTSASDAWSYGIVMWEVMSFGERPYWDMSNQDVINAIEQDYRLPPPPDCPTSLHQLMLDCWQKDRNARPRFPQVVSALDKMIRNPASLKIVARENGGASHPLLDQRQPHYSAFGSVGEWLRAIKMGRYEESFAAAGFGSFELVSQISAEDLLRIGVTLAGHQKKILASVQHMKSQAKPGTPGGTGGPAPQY

[3] = target: Dual specificity mitogen-activated protein kinase kinase 2 (Homo sapiens) (UniProt P36507); test: Inhibition of MEK2 (unknown origin) assessed as residual activity at 1000 nM by KINOMEscan analysis relative to control
Chain of Dual specificity mitogen-activated protein kinase kinase 2 (Homo sapiens) (P36507 whole entry): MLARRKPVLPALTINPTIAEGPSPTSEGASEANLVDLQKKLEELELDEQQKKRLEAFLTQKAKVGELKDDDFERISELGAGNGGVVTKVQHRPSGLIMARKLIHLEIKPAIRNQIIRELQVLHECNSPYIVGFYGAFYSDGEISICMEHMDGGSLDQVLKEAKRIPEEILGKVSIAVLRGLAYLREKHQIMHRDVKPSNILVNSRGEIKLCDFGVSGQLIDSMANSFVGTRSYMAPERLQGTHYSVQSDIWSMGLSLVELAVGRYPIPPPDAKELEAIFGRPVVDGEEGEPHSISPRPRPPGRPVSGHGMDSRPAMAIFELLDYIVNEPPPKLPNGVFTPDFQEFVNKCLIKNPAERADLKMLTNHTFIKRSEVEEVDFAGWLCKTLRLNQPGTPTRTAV

[4] = target: T2, Serine/threonine-protein kinase PknB (Mycobacterium tuberculosis) (UniProt P9WI81); test: Inhibition of Mycobacterium tuberculosis PKNB assessed as residual activity at 1000 nM by KINOMEscan analysis relative to control
T2 sequence (whole entry): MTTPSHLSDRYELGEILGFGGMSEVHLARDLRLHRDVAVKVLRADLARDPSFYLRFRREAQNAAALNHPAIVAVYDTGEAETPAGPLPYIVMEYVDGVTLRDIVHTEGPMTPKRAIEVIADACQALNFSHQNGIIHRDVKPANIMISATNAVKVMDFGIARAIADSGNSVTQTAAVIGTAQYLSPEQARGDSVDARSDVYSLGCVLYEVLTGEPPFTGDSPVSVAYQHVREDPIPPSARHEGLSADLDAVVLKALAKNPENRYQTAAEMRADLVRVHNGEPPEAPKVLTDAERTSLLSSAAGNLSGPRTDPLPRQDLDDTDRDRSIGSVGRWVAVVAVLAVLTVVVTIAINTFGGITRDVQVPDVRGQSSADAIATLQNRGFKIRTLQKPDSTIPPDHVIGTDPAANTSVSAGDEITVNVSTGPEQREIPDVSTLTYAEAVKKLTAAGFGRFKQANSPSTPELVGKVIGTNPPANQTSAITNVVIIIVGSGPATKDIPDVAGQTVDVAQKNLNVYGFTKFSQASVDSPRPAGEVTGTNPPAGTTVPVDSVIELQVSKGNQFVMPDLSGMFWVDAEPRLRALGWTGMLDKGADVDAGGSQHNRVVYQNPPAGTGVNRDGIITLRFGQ

Chain of Vascular endothelial growth factor receptor 3 (Homo sapiens) (P35916 whole entry): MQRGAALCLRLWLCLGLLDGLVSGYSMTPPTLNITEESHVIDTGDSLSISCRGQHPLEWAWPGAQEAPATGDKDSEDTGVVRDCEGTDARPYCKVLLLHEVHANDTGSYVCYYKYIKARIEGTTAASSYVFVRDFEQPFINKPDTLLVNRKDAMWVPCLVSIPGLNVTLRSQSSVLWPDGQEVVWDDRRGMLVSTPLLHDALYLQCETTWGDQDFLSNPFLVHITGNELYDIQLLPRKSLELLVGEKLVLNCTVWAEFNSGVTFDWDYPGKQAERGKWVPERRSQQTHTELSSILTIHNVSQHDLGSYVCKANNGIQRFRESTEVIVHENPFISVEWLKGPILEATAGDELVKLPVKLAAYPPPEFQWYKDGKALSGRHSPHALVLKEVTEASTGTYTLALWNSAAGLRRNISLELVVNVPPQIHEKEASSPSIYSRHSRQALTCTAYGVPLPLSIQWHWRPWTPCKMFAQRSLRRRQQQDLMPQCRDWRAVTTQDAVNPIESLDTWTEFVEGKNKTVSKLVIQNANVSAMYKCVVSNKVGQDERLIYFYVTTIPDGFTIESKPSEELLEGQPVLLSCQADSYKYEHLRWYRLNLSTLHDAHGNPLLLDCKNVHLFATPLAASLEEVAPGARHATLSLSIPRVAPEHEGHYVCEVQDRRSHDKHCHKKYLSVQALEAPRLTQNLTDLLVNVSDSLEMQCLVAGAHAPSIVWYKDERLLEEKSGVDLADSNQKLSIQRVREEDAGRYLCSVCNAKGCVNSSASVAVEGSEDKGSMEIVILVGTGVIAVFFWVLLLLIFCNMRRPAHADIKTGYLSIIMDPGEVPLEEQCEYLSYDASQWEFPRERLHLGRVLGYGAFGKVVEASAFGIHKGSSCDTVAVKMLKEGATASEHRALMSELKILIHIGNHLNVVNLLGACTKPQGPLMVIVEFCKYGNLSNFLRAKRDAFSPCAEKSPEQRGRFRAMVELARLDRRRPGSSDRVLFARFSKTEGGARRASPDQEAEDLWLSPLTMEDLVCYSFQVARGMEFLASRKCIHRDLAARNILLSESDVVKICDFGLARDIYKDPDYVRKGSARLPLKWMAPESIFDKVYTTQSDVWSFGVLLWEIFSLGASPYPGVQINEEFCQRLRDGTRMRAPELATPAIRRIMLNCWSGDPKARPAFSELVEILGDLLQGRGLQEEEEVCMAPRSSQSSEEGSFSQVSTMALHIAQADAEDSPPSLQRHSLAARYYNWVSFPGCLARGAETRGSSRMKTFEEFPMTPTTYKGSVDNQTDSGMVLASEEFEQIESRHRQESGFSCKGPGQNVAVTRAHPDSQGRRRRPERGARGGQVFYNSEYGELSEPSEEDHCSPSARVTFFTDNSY

Row | Compound | Activity [1] | Activity [2] | Activity [3] | Activity [4]
1 | COc1cc2nc(C)nc(N[C@H](C)c3cccc(-c4cn[nH]c4)c3)c2cc1OC | 90% | 45% | 63% | 89%
2 | COc1cc2ncnc(N[C@H](C)c3cccc4ccccc34)c2cc1OC | 100% | 99% | 91% | 94%
